Entries after “also recorded” stand apart in the source; their conditions may differ.
Columns and labels:
[1] = target: T1, Kv7.2/Kv7.3 channels (Homo sapiens, UniProt O43525+O43526); parameters: expressed in transfected cells; details: cited from earlier work
[2] = test system: PTZ-induced seizures; assay: Pentylenetetrazol (PTZ)-induced acute seizures in mice; format: in vivo, C57Bl/6 mice; details: XE991 alone, 3 mg/kg i.p.
Procedure: A subcutaneous (s.c.) injection of 100 mg/kg PTZ in mice is able to trigger convulsive behavior whose intensity can be assessed and quantified according to the revised Lüttjohann’s scale (see Materials and Methods),[40] using a 9-point severity score ranging from 0 (whisker trembling) to 8 (wild jumping). For each animal, the maximal severity score (Figure 5A) and the time latency required to reach such values (Figure 5B) were recorded.
Food and water were available ad libitum. Animals were experimentally naive and were used only once.
Thus, each dose was dissolved to allow injection of 0.01 mL/g, i.p. The control group was represented by mice injected only with vehicle solution (saline containing 2% Tween-20 and 2% PEG-400).
PTZ was injected, and animals were placed in clear Plexiglass boxes for observation of seizure activity. The severity of convulsions (from minimal “clonic” to maximal “generalized tonic–clonic”) as well as the latency to onset of maximal seizure was recorded.
0 = whisker trembling, 1 = sudden behavioral arrest, 2 = facial jerking, 3 = neck jerks, 4 = clonic seizures (sitting), 5 = tonic clonic seizures (lying on belly), 6 = clonic seizures (lying on side), 7 = tonic clonic seizures (lying on side), 8 = wild jumping. The behavioral assessments described above were performed in a blind manner and the observers had to reach a unanimous agreement regarding the scoring of the behavior.
The number of animals needed for the experiment was determined using the power analysis software GPower version 3.1.92. The required minimum sample size was 8 mice per group. Statistical analyses were performed using GraphPad Prism (GraphPad Software, LaJolla, CA) using a one-way analysis of variance with the Tukey post-hoc test. The P value of <0.05 was accepted as indicative of a statistically significant difference.

[3] = target: T1, Kv7.2/Kv7.3 channels; assay: FluxOR thallium-sensitive fluorescence-based assay in CHO cells stably expressing Kv7.2 + Kv7.3; format: cell-based; parameters: expressed in transfected cells; details: for Kv7 opening activity (in words) / Slope of the fluorescent signal at 10 μM: 10 μM; for Kv7 opening activity (in words): compared with retigabine or the reference compound of the subseries; for Slope of the fluorescent signal at 10 μM: initial slope of FluxOR signal between 5 and 15 s, mean ± SEM
Procedure: While assay robustness in Kv7.2/Kv7.3-expressing cells was high (Z′ factor > 0.5),[27] the Z′ factor calculated in CHO cells expressing Kv7.2 subunits alone was <0.5; thus, all subsequent pharmacological screens were performed in Kv7.2/Kv7.3-expressing cells. […] The Kv7.2/Kv7.3-stable cell line was generated using a plasmid-based PiggyBac transposon system that enables genomic integration of multiple independent transposons containing distinct cDNA sequences. cDNAs for KCNQ2 and KCNQ3 genes (encoding for Kv7.2 and Kv7.3, respectively) were cloned into two different PiggyBac expression vectors (pB-CMV-MCS-EF1α-RedPuro, System Biosciences), and these two plasmids, together with a plasmid encoding for the transposase (System Biosciences), were transfected into CHO cells using Lipofectamine 2000 (Invitrogen) as indicated in the protocol provided by the seller company.
The selected clone stably expressing Kv7.2/Kv7.3 channels was grown in DMEM supplemented with 10% FBS, 50 U/mL Pen-Strep, 2 mM L-glutamine (all purchased from Gibco), and 4 μg/mL puromycin (Sigma) in a humidified atmosphere at 37 °C with 5% CO2. […] A kinetic dispense microplate reader (FLUOstar Optima) was used to read the plate, setting the excitation filter at 485 nm and the emission filter at 520 nm; “Stimulus buffer” prepared as indicated in the protocol was automatically added to wells after 5 s of recording; the plate was read every 1 s, for 50 s. The results were analyzed using Optima Data Analysis and Microsoft Excel.
Only experiments resulting in a Z′ > 0.5 were considered. Data shown (Figures 1D,E,F,G and 3B) were obtained from at least three independent experiments.
Data were analyzed using the GraphPad Prism 8.0.2 (GraphPad Software, LaJolla, CA). Statistically significant differences in the initial slope of the curves were evaluated through ordinary one-way ANOVA, and multiple comparisons were corrected with the Tukey test. […] Indicated EC50 values are the mean of at least three independent experiments ± standard error of the mean (SEM).

[4] = Photostability under UV-visible light with HPLC analysis (degradation, dimer formation); format: physicochemical; details: for % Degradation (3h, UV): 10 μM, buffered aqueous solution pH 7.4, 3 h UV-visible light, ± SD; for Dimers Formation / Photodegradation (in words): 3 h UV-visible light; for Dimers Formation: HPLC at 550 nm; for Photodegradation (in words): compared with retigabine
Excerpt: Two different HPLC wavelengths were utilized: (a) […] to evaluate the decreased concentration of the starting molecule; (b) 550 nm to investigate the formation of phenazine/phenazinium dimers, as previously described.[10] Unfortunately, dimer formation was detected for all tested compounds, except for 23 and 24. […]. […]. The first group consisted of N4 (−X- in Table 2) substituted analogues, in which the tertiary amine is unavailable for the formation of phenazine dimers (compounds 25–28). […]. The third group included derivatives replacing hydrogen atoms with electron-withdrawing fluorine atoms at position R2 of the benzene-1,2,4-triamine core scaffold (compounds 59, 60), a strategy likely reducing the reactivity of N2 and N4. […].
Photostability experiments were performed by dissolving compounds in DMSO and then diluting in buffered aqueous solutions at pH 7.4 to a final concentration of 10 μM. 1 cm quartz cells, filled with the abovementioned solutions, were irradiated by a UV lamp (UV Consulting TQ 150 equipped with Duran 50 sleeve and 150 W power supply unit, Peschl, Germany) at a fixed distance of 20 cm from the UV source. Control samples were maintained at 37 °C, wrapped with aluminum foil to avoid light exposure, and used to assess chemical stability of the compounds. At predetermined intervals, aliquots were withdrawn and analyzed by UHPLC in order to assess the concentration decrease of the starting materials and the presence of the dimers usually formed by retigabine.
Photostability and chemical stability experiments were carried out on a Kinetex^TM C18 150 × 2.1 mm × 2.6 μm (100 Å) column (Phenomenex, Bologna, Italy). The optimal mobile phase consisted of 0.1% TFA/H2O v/v (A) and 0.1% TFA/ACN v/v (B). Analysis was performed in gradient elution as follows: 0–13.0 min, 5–65% B; 13–14.0 min, 65–95% B; 14–15.0 min, isocratic to 95% B; 15–15.01 min, 95–5% B; then 3 min for column re-equilibration. The flow rate was 0.5 mL min^–1. The column oven temperature was set to 45 °C. The injection volume was 7 μL of sample. The following PDA parameters were applied: sampling rate, 12.5 Hz; detector time constant, 0.160 s; cell temperature, 40 °C. Data acquisition was set in the range 190–800 nm, and chromatograms were monitored at 224 nm to assess the decrease in concentration of the starting material, while a wavelength of 550 nm was used to eventually detect dimerization.

[5] = In vitro metabolism assay (S9 fraction of human liver microsomes); format: in vitro ADME; details: human
Procedure: To further explore the metabolic stability of compounds 25, 26, and 60 in a biologically relevant model, they were tested in an in vitro metabolism assay (S9 fraction of human liver microsomes) using retigabine as a comparator.[33],[34] In this assay, a very small extent (4.7 ± 0.5%) of retigabine undergoes phase I metabolism, whereas a larger fraction (17.4 ± 1.2%) was metabolized in phase II reactions, as previously reported.[35]

Row | SMILES | Potency relative to retigabine in activating Kv7.2/Kv7.3 channels in vitro [1] | Effect on seizure severity score or latency [2] | Effect on retigabine-induced increase of maximal fluorescence and initial slope ([3]; 10 μM XE991 with retigabine) | % Degradation (3h, UV) [4] | Dimers Formation [4] | Photodegradation (in words) [4] | Phase I turnover metabolism [5] | Phase II turnover metabolism [5] | Kv7 opening activity (in words) [3] | Slope of the fluorescent signal at 10 μM [3]
1 | CCOC(=O)Nc1ccc(NCc2ccc(F)cc2)c(F)c1N [SF0034] | five times more potent than retigabine |  |  |  |  |  |  |  |  | 
2 | O=C1c2ccccc2C(Cc2ccncc2)(Cc2ccncc2)c2ccccc21 [XE991, reference compound] |  | did not affect | abolished |  |  |  |  |  |  | 
3 | CCCCCCC(=O)Nc1ccc(N(C)Cc2ccc(C(F)(F)F)cc2)cc1N [compound 25, N-(2-Amino-4-(methyl(4-(trifluoromethyl)benzyl)amino)phenyl)heptanamide] |  |  |  | 63.3±2.8% | did not form dimers and No | underwent extensive photodegradation | 20.6 ± 1.4% | 33.2 ± 1.0% | improved agonist activity; also recorded: higher than that of retigabine | 0.0637±0.0033
4 | CN(Cc1ccc(C(F)(F)F)cc1)c1ccc(NC(=O)CC(C)(C)C)c(N)c1 [compound 26, N-(2-Amino-4-(methyl(4-(trifluoromethyl)benzyl)amino)phenyl)-3,3-dimethylbutanamide] |  |  |  | 99.5±0.1% | did not form dimers and No | underwent extensive photodegradation | 32.1 ± 1.2% | 32.7 ± 0.3% | improved agonist activity; also recorded: higher than that of retigabine | 0.0721±0.0034
5 | CCCCCCC(=O)Nc1ccc(NCc2ccccc2)cc1N [compound 41, N-(2-Amino-4-(benzylamino)phenyl)heptanamide] |  |  |  | 19.5±4.7% | Yes |  |  |  | no change in activity | 0.0476±0.0030
6 | CC(C)(C)CC(=O)Nc1ccc(NCc2c(F)cccc2F)cc1N [compound 43, N-(2-Amino-4-((2,6-difluorobenzyl)amino)phenyl)-3,3-dimethylbutanamide] |  |  |  | 98.4±0.2% | Yes |  |  |  | still displayed strong activity | 0.0534±0.0028
7 | CCCCCCC(=O)Nc1ccc(NCc2ccccc2F)cc1N [compound 52, N-(2-Amino-4-((2-fluorobenzyl)amino)phenyl)heptanamide] |  |  |  | 74.9± 0.1% | Yes |  |  |  | no change in activity | 0.0448±0.0035

Source: paper PMC9421656, “Beyond Retigabine: Design, Synthesis, and Pharmacological Characterization of a Potent and Chemically Stable Neuronal Kv7 Channel Activator with Anticonvulsant Activity” (Journal of Medicinal Chemistry, 2022)
